Columns and labels:
Assay in all cases: relative viability (nuclei count vs DMSO), 5 days (fraction); higher = more cells survive
BEN = test system: BEN
Summary of the method: (§1)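 Relative viability is defined as nuclei in treated wells over nuclei in vehicle wells. Duplicate plates were run and medians reported. Lung cancer cell lines in 1536-well plates were dosed by pin tool one day after seeding, with one drug or with a fixed anchor-drug dose plus five library-drug doses (not always all listed) in √10 steps, and nuclei were counted after 5 days.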

ChaGo-K-1 = test system: ChaGo-K-1
Summary of the method: as §1

HCC-15 = test system: HCC-15
Summary of the method: as §1

HCC-78 = test system: HCC-78
Summary of the method: as §1

LC-2-ad = test system: LC-2-ad
Summary of the method: as §1

LCLC-97TM1 = test system: LCLC-97TM1
Summary of the method: as §1

LK-2 = test system: LK-2
Summary of the method: as §1

LU99A = test system: LU99A
Summary of the method: as §1

LXF-289 = test system: LXF-289
Summary of the method: as §1

NCI-H1651 = test system: NCI-H1651
Summary of the method: as §1

NCI-H1666 = test system: NCI-H1666
Summary of the method: as §1

NCI-H1944 = test system: NCI-H1944
Summary of the method: as §1

NCI-H2087 = test system: NCI-H2087
Summary of the method: as §1

NCI-H322M = test system: NCI-H322M
Summary of the method: as §1

NCI-H358 = test system: NCI-H358
Summary of the method: as §1

NCI-H596 = test system: NCI-H596
Summary of the method: as §1

NCI-H650 = test system: NCI-H650
Summary of the method: as §1

NCI-H661 = test system: NCI-H661
Summary of the method: as §1

NCI-H838 = test system: NCI-H838
Summary of the method: as §1

PC-3 [JPC-3] = test system: PC-3 [JPC-3]
Summary of the method: as §1

SK-MES-1 = test system: SK-MES-1
Summary of the method: as §1

UMC-11 = test system: UMC-11
Summary of the method: as §1

Work on `Oc1nc(-c2ccc(C(F)(F)F)cc2)nc2c1CSCC2` [XAV939] + C[C@@H](Oc1cc(-c2cnn(C3CCNCC3)c2)cnc1N)c1c(Cl)ccc(F)c1Cl [Crizotinib] (partner 1 µM) yielded a relative viability (BEN; first compound 0.08 µM) of 0.868, a relative viability (BEN; first compound 0.253 µM) of 0.788 and a relative viability (BEN; first compound 0.8 µM) of 0.978. For the same compound, the relative viability (ChaGo-K-1; first compound 0.08 µM) was 1.28, the relative viability (ChaGo-K-1; first compound 0.253 µM) was 1.16 and the relative viability (ChaGo-K-1; first compound 0.8 µM) was 1.07. For the same compound, the relative viability (ChaGo-K-1; first compound 2.53 µM) was 0.883, the relative viability (HCC-15; first compound 0.08 µM) was 0.968 and the relative viability (HCC-15; first compound 0.253 µM) was 0.746. It also gave a relative viability (HCC-15; first compound 0.8 µM) of 0.823, a relative viability (HCC-15; first compound 2.53 µM) of 0.743 and a relative viability (HCC-78; first compound 0.08 µM) of 0.342. For the same compound, the relative viability (HCC-78; first compound 0.253 µM) was 0.316, the relative viability (HCC-78; first compound 0.8 µM) was 0.326 and the relative viability (HCC-78; first compound 2.53 µM) was 0.299. For the same compound, the relative viability (LC-2-ad; first compound 0.08 µM) was 0.468, the relative viability (LC-2-ad; first compound 0.253 µM) was 0.382 and the relative viability (LC-2-ad; first compound 0.8 µM) was 0.435. For the same compound, the relative viability (LC-2-ad; first compound 2.53 µM) was 0.489, the relative viability (LCLC-97TM1; first compound 0.08 µM) was 0.488 and the relative viability (LCLC-97TM1; first compound 0.253 µM) was 0.344. It also gave a relative viability (LCLC-97TM1; first compound 0.8 µM) of 0.361, a relative viability (LCLC-97TM1; first compound 2.53 µM) of 0.305 and a relative viability (LK-2; first compound 0.08 µM) of 0.178. For the same compound, the relative viability (LK-2; first compound 0.253 µM) was 0.224, the relative viability (LK-2; first compound 0.8 µM) was 0.181 and the relative viability (LK-2; first compound 2.53 µM) was 0.207. For the same compound, the relative viability (LU99A; first compound 0.08 µM) was 0.539, the relative viability (LU99A; first compound 0.253 µM) was 0.55 and the relative viability (LU99A; first compound 0.8 µM) was 0.567. The relative viability (LU99A; first compound 2.53 µM) was 0.504, the relative viability (LXF-289; first compound 0.08 µM) was 0.833 and the relative viability (LXF-289; first compound 0.253 µM) was 0.754. It also gave a relative viability (LXF-289; first compound 0.8 µM) of 0.829, a relative viability (LXF-289; first compound 2.53 µM) of 0.874 and a relative viability (NCI-H1651; first compound 0.08 µM) of 0.988. It also gave a relative viability (NCI-H1651; first compound 0.253 µM) of 0.798, a relative viability (NCI-H1651; first compound 0.8 µM) of 0.857 and a relative viability (NCI-H1651; first compound 2.53 µM) of 0.856. The relative viability (NCI-H1666; first compound 0.08 µM) was 0.971, the relative viability (NCI-H1666; first compound 0.253 µM) was 0.64 and the relative viability (NCI-H1666; first compound 0.8 µM) was 0.781. It also gave a relative viability (NCI-H1666; first compound 2.53 µM) of 0.473, a relative viability (NCI-H1944; first compound 0.08 µM) of 1.32 and a relative viability (NCI-H1944; first compound 0.253 µM) of 1.08. The relative viability (NCI-H1944; first compound 0.8 µM) was 1.03, the relative viability (NCI-H1944; first compound 2.53 µM) was 0.959 and the relative viability (NCI-H2087; first compound 0.08 µM) was 0.879. The relative viability (NCI-H2087; first compound 0.253 µM) was 0.998, the relative viability (NCI-H2087; first compound 0.8 µM) was 0.715 and the relative viability (NCI-H2087; first compound 2.53 µM) was 0.797. The relative viability (NCI-H322M; first compound 0.08 µM) was 1.03, the relative viability (NCI-H322M; first compound 0.253 µM) was 0.83 and the relative viability (NCI-H322M; first compound 0.8 µM) was 0.911. It also gave a relative viability (NCI-H322M; first compound 2.53 µM) of 0.547, a relative viability (NCI-H358; first compound 0.08 µM) of 0.729 and a relative viability (NCI-H358; first compound 0.253 µM) of 0.45. For the same compound, the relative viability (NCI-H358; first compound 0.8 µM) was 0.563, the relative viability (NCI-H358; first compound 2.53 µM) was 0.573 and the relative viability (NCI-H596; first compound 0.08 µM) was 1.12. It also gave a relative viability (NCI-H596; first compound 0.253 µM) of 0.955, a relative viability (NCI-H596; first compound 0.8 µM) of 1.06 and a relative viability (NCI-H596; first compound 2.53 µM) of 0.93. The relative viability (NCI-H650; first compound 0.08 µM) was 1.01, the relative viability (NCI-H650; first compound 0.253 µM) was 0.945 and the relative viability (NCI-H650; first compound 0.8 µM) was 0.736. It also gave a relative viability (NCI-H650; first compound 2.53 µM) of 0.545, a relative viability (NCI-H661; first compound 0.08 µM) of 0.922 and a relative viability (NCI-H661; first compound 0.253 µM) of 0.961. The relative viability (NCI-H661; first compound 0.8 µM) was 0.953, the relative viability (NCI-H661; first compound 2.53 µM) was 0.969 and the relative viability (NCI-H838; first compound 0.08 µM) was 0.875. It also gave a relative viability (NCI-H838; first compound 0.253 µM) of 0.719, a relative viability (NCI-H838; first compound 0.8 µM) of 0.759 and a relative viability (NCI-H838; first compound 2.53 µM) of 0.432. The relative viability (PC-3 [JPC-3]; first compound 0.08 µM) was 0.936, the relative viability (PC-3 [JPC-3]; first compound 0.253 µM) was 0.903 and the relative viability (PC-3 [JPC-3]; first compound 0.8 µM) was 0.966. The relative viability (PC-3 [JPC-3]; first compound 2.53 µM) was 0.92, the relative viability (SK-MES-1; first compound 0.08 µM) was 1.02 and the relative viability (SK-MES-1; first compound 0.253 µM) was 0.934. The relative viability (SK-MES-1; first compound 0.8 µM) was 0.882, the relative viability (SK-MES-1; first compound 2.53 µM) was 0.842 and the relative viability (UMC-11; first compound 0.08 µM) was 0.777. The relative viability (UMC-11; first compound 0.8 µM) was 0.578 and the relative viability (UMC-11; first compound 2.53 µM) was 0.414.

Reference: the supplement of paper PMC10307832
